Laboratory results taken from BindingDB's records for doi:10.1016/S0960-894X(00)80067-0 (1994).

Assay: Compound was tested for inhibition of partially purified squalene epoxidase

IC50, 500 µM:
CCN(Cc1cccc(OCc2cc(-c3cccs3)cs2)c1)c1cc(O)cc(C2(C(F)(F)F)N=N2)c1 [3-{[3-([2,3']Bithiophenyl-5'-ylmethoxy)-benzyl]-ethyl-amino}-5-(3-trifluoromethyl-3H-diazirin-3-yl)-phenol]
CCN(Cc1cccc(OCc2cc(-c3cccs3)cs2)c1)c1ccc(C(=O)c2ccc(CCl)cc2)cc1 [(4-{[3-([2,3']Bithiophenyl-5'-ylmethoxy)-benzyl]-ethyl-amino}-phenyl)-(4-chloromethyl-phenyl)-methanone]
CCN(CC=CC#CC(C)(C)C)Cc1cccc(OCc2cc(CO)cc(C3(C(F)(F)F)N=N3)c2)c1 [[3-(3-{[((E)-6,6-Dimethyl-hept-2-en-4-ynyl)-ethyl-amino]-methyl}-phenoxymethyl)-5-(3-trifluoromethyl-3H-diazirin-3-yl)-phenyl]-methanol]
